Where a name gives a salt, the structure may show the parent alone.
Columns and labels:
[1] = system: white New Zealand rabbits; test: Mydriatic response (pupil dilation, RRmax) after ocular dosing of ephedrine hydrochloride; format: in vivo; settings: 5 μl of 5% solution (250 μg) as droplet stream compared with 5 μl 5% and 25 μl 1% instillates (250 μg each); rabbit
Procedure: Six white New Zealand rabbits were administered with the following dosage regimen:
I→25 μl of 1% aqueous ephedrine hydrochloride solution (250 μg) via pipette (instillate)
II→5 μl of 5% aqueous ephedrine hydrochloride solution (250 μg) via pipette (instillate)
III→5 μl of 5% aqueous ephedrine hydrochloride solution (250 μg) in a jet/stream of droplets of diameter in the range 200 to 400 μm.
Pupil diameter measurements were determined from photographs acquired using a Pentax ME super 35 mm camera fitted with a SMC Pentax 50 mm lens and a 2x converter. An aperture setting of 12, and a shutter speed of 1/15 was employed with a film speed of ISO 400 (Kodak Gold 400). The camera was held stationary on a tripod and positioned approximately 30-40 cm from the rabbits eye. Prior to each dosing period the animals were acclimatised to experimental conditions (constant light intensity, minimal distractions) for 20 min. The rabbits were placed in restraining boxes and settled before photographs and baseline pupil diameters were determined 5 min prior to dosing.
Pupillary diameters were determined from the developed colour prints (6×4) using an electronic micrometer (Digimatic Caliper, Mitutoyo Corp., Japan). […] The maximum response ratio (RRmax) for pupil dilation was then calculated from the photographs using the following relationship: […]

[2] = system: white New Zealand rabbits; test: Miotic response (pupil diameter) after ocular dosing of pilocarpine hydrochloride, randomised cross-over study; format: in vivo; settings: rabbit; for AUC (0-4 hours), area under the pupillary diameter vs. time curve / RR max: ± SD
Procedure: Ten white New Zealand rabbits were treated with the following dosage regimen in a randomised cross-over study:
30 μl of 1% aqueous pilocarpine hydrochloride solution (300 μg) was instilled via pipette into the conjunctival sac 5 μl of 1% aqueous pilocarpine hydrochloride solution (50 μg) was applied as a jet and/or stream of droplets (with a diameter in the range of 200 μm to 400 μm) to the surface of the cornea.
In order to determine pupil diameters, a metallic rule with a circular aperture of known diameter was orientated perpendicular to, and at an appropriate fixed distance from, a video camera fitted with a macro lens (Sony V8 Pro-CDD-V100E) throughout the study. During miotic measurements, the animals were positioned such that the left eye was parallel to the ruler and equidistant from the video camera. The video camera was actuated to project and amplify images of both the reference aperture and left eye onto the monitor screen. The diameters of both the reference aperture and pupil were then measured on the screen using a ruler placed on the projected image at an angle of approximately […]. The value of the pupil diameter was then calculated by multiplying the projected screen pupil diameter by the ratio of the actual reference diameter (8 mm) to the projected screen reference diameter (18 mm).
Pupil measurements were taken at approximately 60, 45, 30 and 15 minute intervals prior to administration of the treatments to provide a baseline value, and then at 15 minute intervals for the first hour after dosing. Thereafter, the pupil diameter was measured at 30 minute intervals for a minimum duration of 4 hours after dose administration.
For the purpose of statistical analysis of variants between treatments, the following parameters were determined: RR max=(pupil diameter at time t−pupil diameter at time 0)/pupil diameter at time 0; T max=the first time point at which the smallest pupillary diameter was observed; and AUC (0-4 hours)=the area under the pupillary diameter vs. time curve between 0 and 4 hours after treatment.
All significance tests were two-tailed and were performed at the 5% significance level. The statistical software SAS V607 and the PROC GLM procedure were used in the analysis.

[3] = Ocular distribution study of tritiated propranolol hydrochloride; format: in vivo, rabbit
Procedure: 40 μl of 0.5% aqueous tritiated propranolol hydrochloride solution (200 μg) was administered via pipette into the conjunctival sac of twelve New Zealand white rabbit eyes. Seperately, 5 μl of 4% aqueous tritiated propranolol hydrochloride solution (200 μg) was applied as a jet or stream of droplets (with a diameter in the range of 200 μm to 400 μm) to the surface (cornea and/or conjunctiva) of twelve different New Zealand white rabbit eyes
Following each treatment, four eyes were ennucleated after 15 minutes, four after 30 minutes and the remaining four after 60 minutes. In each case, the animals were humanely killed prior to the ocular ennucleation procedure via an overdose of sodium pentobarbitol injected into a marginal ear vein. Each eye was then irrigated by instilling 100 μl of normal saline into the conjunctival sac using an automatic pipette and immediately blotting away excess saline with paper tissue to remove any radioactivity in the tear film. Following ennucleation and removal of the adnexal tissue, the cornea was washed with a second 100 μl of normal saline. The aqueous humor was then quickly removed by paracentesis with a 1 ml syringe and 26G needle. To this was then added an equal volume of trichloroacetic acid (TCA) solution (10% w/v) to bring the final concentration to 5% w/v TCA. Both eyes were then dissected from the posterior pole to allow removal of the vitreous humor and the lens, whilst the iris-cilary body was transferred to a tared sample tube. The cornea was then removed using a 12 mm trephine, and the limbal cornea and conjunctiva (with underlying sclera) cut free into a strip approximately 5 mm wide using a scalpel and scissors. Each sample was then weighed in a tared sample tube and at least 5 volumes of TCA (6% w/v) added. All tissue samples were subjected to sonication for 5 minutes, then centrifuged at 10 000 g.min. to yield a supernatent. Each supernatent was then extracted 3 times with 3 volumes of ether and, after evaporation of residual solvent, the aqueous residue was sampled and added to 5 ml of FluoronSafe XE “Scintron” scintillation fluid (BDH Chemicals, UK). Radioactivity was then determined by counting in a Packard 1600DR beta-scintillation counter. Data gathered as counts per minute was then converted into disintegrations per minute (dpm), using external standardisation, and expressed as dpm […] after adjusting for the total radioactivity in each dose. Due to the small number of samples per time point per treatment, statistical analysis was not considered appropriate for this study.
The results of this study are summarised for the different ocular tissues in tables 1 to 4 below, where the values shown represent dpm (disintegrations per minute) per mg of tissue.

[4] = cited from earlier work
[5] = 1% 5 μl jet and/or stream of droplets (50 μg) to cornea
[6] = 1% 30 μl large eyedrop (300 μg) instilled into conjunctival sac
[7] = 0.5% 40 μl large eyedrop (200 μg), 15 mins
[8] = 0.5% 40 μl large eyedrop (200 μg), 30 mins
[9] = 0.5% 40 μl large eyedrop (200 μg), 60 mins
[10] = 4.0% 5 μl jet and/or stream of droplets (200 μg), 15 mins
[11] = 4.0% 5 μl jet and/or stream of droplets (200 μg), 30 mins
[12] = 4.0% 5 μl jet and/or stream of droplets (200 μg), 60 mins
[13] = 5 μl eye drop loaded with 26.1 μg

CN[C@@H](C)[C@H](O)c1ccccc1 [Ephedrine, ephedrine hydrochloride]
Mydriatic response (RRmax vs time, FIG. 1) [1]: more pronounced and maintained over a longer duration compared to both instillates

CC[C@@H]1C(=O)OC[C@@H]1Cc1cncn1C [Pilocarpine, pilocarpine hydrochloride]
AUC (0-4 hours), area under the pupillary diameter vs. time curve [2, 5]: 3827 ± 312 mmMin. | RR max [2, 5]: 12.3 ± 5.2 % | AUC (0-4 hours), area under the pupillary diameter vs. time curve [2, 6]: 3871 ± 340 mmMin. | RR max [2, 6]: 15.2 ± 4.0 % | Pupil diameter after administration ([2]; both dose forms (30 μl eyedrop 300 μg; 5 μl jet 50 μg), after 15 minutes): reduction in pupil diameter was evident | Time after treatment at which the miotic effect started to disappear ([2]; both dose forms): 60 to 90 min | Time after which pupil measurements had fully recovered to predose levels ([2]; both dose forms): 120 min

CC(C)NCC(O)COc1cccc2ccccc12 (centres unmarked) [Propranolol, propranolol hydrochloride]
Radioactivity in aqueous humor [3, 7]: 1310 dpm per mg of tissue | Radioactivity in conjunctiva/sclera [3, 7]: 2569 dpm per mg of tissue | Radioactivity in cornea [3, 7]: 5579 dpm per mg of tissue | Radioactivity in iris-cilary body [3, 7]: 942 dpm per mg of tissue | Radioactivity in aqueous humor [3, 8]: 960 dpm per mg of tissue | Radioactivity in conjunctiva/sclera [3, 8]: 2838 dpm per mg of tissue | Radioactivity in cornea [3, 8]: 3467 dpm per mg of tissue | Radioactivity in iris-cilary body [3, 8]: 1033 dpm per mg of tissue | Radioactivity in aqueous humor [3, 9]: 705 dpm per mg of tissue | Radioactivity in conjunctiva/sclera [3, 9]: 1380 dpm per mg of tissue | Radioactivity in cornea [3, 9]: 2945 dpm per mg of tissue | Radioactivity in iris-cilary body [3, 9]: 799 dpm per mg of tissue | Radioactivity in aqueous humor [3, 10]: 1845 dpm per mg of tissue | Radioactivity in conjunctiva/sclera [3, 10]: 5286 dpm per mg of tissue | Radioactivity in cornea [3, 10]: 5241 dpm per mg of tissue | Radioactivity in iris-cilary body [3, 10]: 2256 dpm per mg of tissue | Radioactivity in aqueous humor [3, 11]: 1176 dpm per mg of tissue | Radioactivity in conjunctiva/sclera [3, 11]: 2259 dpm per mg of tissue | Radioactivity in cornea [3, 11]: 3766 dpm per mg of tissue | Radioactivity in iris-cilary body [3, 11]: 1482 dpm per mg of tissue | Radioactivity in aqueous humor [3, 12]: 607 dpm per mg of tissue | Radioactivity in conjunctiva/sclera [3, 12]: 1673 dpm per mg of tissue | Radioactivity in cornea [3, 12]: 1861 dpm per mg of tissue | Radioactivity in iris-cilary body [3, 12]: 586 dpm per mg of tissue | Level reaching the iris-ciliary body from jet and/or stream of droplets relative to eyedrop ([3]; 15 minute time point, 200 μg each): more than double | Radioactivity in ocular tissues ([3]; all ocular tissues, all time points, both treatments): Significant radioactivity was detected

CC[C@@H]1C(=O)OC[C@@H]1Cc1cncn1C [pilocarpine nitrate]
Drug available for potential systemic absorption [4, 13]: 25.7 µg | Fraction of drug absorbed into the eye [4, 13]: 0.41 µg | Drug left to be absorbed systemically ([4]; 25 μl drop loaded with 67.8 μg): 67.4 µg | Drug penetrated the eye ([4]; 25 μl drop loaded with 67.8 μg): 0.36 µg

Reference: patent publication US20040092548A1, “OPHTHALMIC TREATMENT” (priority 1995, published 2004)
